Patent publication US11629171B2, “Beta-hairpin peptidomimetics” (POLYPHOR AG, priority 2017, dated 2023)
≈ marks a conversion by molar mass, not a printed value. Where a SMILES comes first, the peptide text is derived from it. Bridges are numbered along the chain shown (N, C = ends). Roman numbers before positions name the chains, in order. [ ]: non-standard residue; d: D form. The star is where a group is joined. Tle = CC(C)(C)[C@H](N)C(=O)O; Hiv = CC(C)[C@H](O)C(=O)O; dDab = NCC[C@@H](N)C(=O)O; hSer = N[C@@H](CCO)C(=O)O; NHCH(CH2OH)2 = OCC(CO)N*; Orn = NCCC[C@H](N)C(=O)O; Dab = NCC[C@H](N)C(=O)O; Dap = NC[C@H](N)C(=O)O

Assays:
Type in all cases: cell-based
[1] = test system: Acinetobacter baumannii 872842; settings: 872842
Experimental: (§1) The in vitro antimicrobial activities of the peptides were determined in 96-well plates (Greiner, polystyrene) by the standard CLSI broth microdilution method (Clinical and Laboratory Standards Institute 2014. Performance standards for antimicrobial susceptibility testing, 24th informational supplement. Approved standard CLSI M100-S24; Clinical and Laboratory Standards Institute, Wayne, Pa.). The following microorganisms were used to determine antibiotic activity of the peptides: Escherichia coli ATCC 25922, Klebsiella pneumoniae SSI #3010^a), Acinetobacter baumannii DSM 30008, Pseudomonas aeruginosa ATCC 27853 and the clinical isolates Escherichia coli 926415^b), Klebsiella pneumoniae 968733^b), Acinetobacter baumannii 872842^b), Enterobacter cloacae 848840^b) and Escherichia coli MCR-1 Af45^c). Before preparation of inocula, Escherichia coli MCR-1 Af45 was subcultured on Mueller-Hinton II (MH-cation adjusted) agar containing 2 μg/mL colistin. ^a) Obtained from Statens Serum Institut (SSI), Copenhagen, Denmark^b) Obtained from International Health Management Associates, Inc. (IHMA Europe Sàrl), Epalinges, Switzerland^c) Obtained from Prof. Patrice Nordmann, University of Fribourg, Fribourg, Switzerland
(§2) Inocula of the microorganisms were diluted into Mueller-Hinton II (MH-cation adjusted) broth and compared with a 0.5 McFarland standard to give appr. 10^6 colony forming units (CFU)/mL. Aliquots (90 μL) of inoculum were added to 10 μL of MH-II broth+P-80 (Polysorbate 80, 0.002% final concentration, v/v) containing the peptide in serial two-fold dilutions. Antimicrobial activities of the peptides were expressed as the minimal inhibitory concentration (MIC) in μg/mL at which no visible growth was observed after 18-20 hours of incubation at 35° C.

[2] = test system: Acinetobacter baumannii DSM 30008; settings: DSM 30008
Experimental: as §1, §2

[3] = test system: Escherichia coli 926415; settings: 926415
Experimental: as §1, §2

[4] = test system: Escherichia coli ATCC 25922; settings: ATCC 25922
Experimental: as §1, §2

[5] = test system: Klebsiella pneumoniae 968733; settings: 968733
Experimental: as §1, §2

[6] = test system: Klebsiella pneumoniae SSI #3010; settings: SSI #3010
Experimental: as §1, §2

[7] = test system: Pseudomonas aeruginosa ATCC 27853; settings: ATCC 27853
Experimental: as §1, §2

[8] = test system: human red blood cells (hRBC); assay: Hemolysis; settings: red cells of human, 1 h, 200
Experimental: The peptides were tested for their hemolytic activity against human red blood cells (hRBC). Fresh hRBC were washed four times with phosphate buffered saline (PBS) and centrifuged for 10 min at 3000×g. Compounds (200 μg/mL) were incubated with 20% hRBC (v/v) for 1 h at 37° C. and shaking at 300 rpm. A value of 0% and 100% cell lysis, respectively, was determined by incubation of hRBC in the presence of PBS containing 10% water and 2% Triton X-100 in H2O, respectively. The samples were centrifuged, the supernatants were ˜7.5-fold diluted in PBS buffer and the optical densities (OD) were measured at 540 nm and blank corrected. The 100% lysis value (OD540Triton X-100) gave an OD540 of approximately 0.5-1.0.
Percent hemolysis was calculated as follows: (OD540peptide/OD540Triton X-100)×100%.

| SMILES | MIC [1] | MIC [2] | MIC [3] | MIC [4] | MIC [5] | MIC [6] | MIC [7] | Hemolysis at 200 μg/mL [8] |
| --- | --- | --- | --- | --- | --- | --- | --- | --- |
| CC(=O)N[C@H](C(=O)N[C@H]1CSSC[C@@H](C(=O)N[C@H](C(N)=O)C(C)C)NC(=O)[C@H](Cc2ccc(O)cc2)NC(=O)[C@H](CO)NC(=O)[C@H](Cc2c[nH]c3ccccc23)NC(=O)[C@H](CCO)NC(=O)[C@@H](CCN)NC(=O)[C@H](CCC(=O)N[C@@H](CCN)C(=O)N[C@H](C(=O)N[C@@H](CCN)C(=O)N[C@H]2CCNC(=O)[C@H]([C@@H](C)O)NC(=O)[C@H](CCN)NC(=O)[C@H](CCN)NC(=O)[C@H](CC(C)C)NC(=O)[C@@H](CC(C)C)NC(=O)[C@H](CCN)NC2=O)[C@@H](C)O)NC(=O)[C@H](CCN)NC(=O)[C@H](CO)NC1=O)C(C)C [Ex. 68] (I: Ac-VCS[Dab]E[dDab][hSer]WSYCV-NH2 / II: [Dab]T[Dab][Dab][Dab][dL]L[Dab][Dab]T; disulfide I:2-I:11; amide I:5-II:N; lactam II:4-II:C) | 8 µg/mL (≈ 3.3 µM) | 0.25 µg/mL (≈ 0.103 µM) | 2 µg/mL (≈ 0.824 µM) | 0.25 µg/mL (≈ 0.103 µM) | 1 µg/mL (≈ 0.412 µM) | 0.125 µg/mL (≈ 0.0515 µM) | 0.5 µg/mL (≈ 0.206 µM) | <1% |
| CC(C)C[C@@H]1NC(=O)[C@@H](CC(C)C)NC(=O)[C@H](CCN)NC(=O)[C@@H](NC(=O)[C@H](CCN)NC(=O)[C@@H](NC(=O)[C@H](CCN)NC(=O)CC[C@@H]2NC(=O)[C@H](CCN)NC(=O)[C@H](C(C)C)NC(=O)[C@@H](NC(=O)[C@@H](O)C(C)C)CSSC[C@@H](C(=O)NC(CO)CO)NC(=O)[C@H](Cc3ccc(O)cc3)NC(=O)[C@H](CO)NC(=O)[C@H](Cc3c[nH]c4ccccc34)NC(=O)[C@H](CCO)NC(=O)[C@@H](CCN)NC2=O)[C@@H](C)O)CCNC(=O)[C@H]([C@@H](C)O)NC(=O)[C@H](CCN)NC(=O)[C@H](CCN)NC1=O [Ex. 97] (I: H-[Hiv]CV[Dab]E[dDab][hSer]WSYC-{NHCH(CH2OH)2} / II: [Dab]T[Dab][Dab][Dab][dL]L[Dab][Dab]T; disulfide I:2-I:11; amide I:5-II:N; lactam II:4-II:C) | 2 µg/mL (≈ 0.843 µM) | 0.25 µg/mL (≈ 0.105 µM) | 2 µg/mL (≈ 0.843 µM) | 0.25 µg/mL (≈ 0.105 µM) | 8 µg/mL (≈ 3.37 µM) | 0.125 µg/mL (≈ 0.0527 µM) | 0.25 µg/mL (≈ 0.105 µM) | <1% |
| CC(C)C[C@@H]1NC(=O)[C@@H](CC(C)C)NC(=O)[C@H](CCN)NC(=O)[C@@H](NC(=O)[C@H](CN)NC(=O)[C@@H](NC(=O)[C@H](CCN)NC(=O)CC[C@@H]2NC(=O)[C@H](CCCN)NC(=O)[C@H](CCN)NC(=O)[C@H](Cc3ccc(O)cc3)NC(=O)[C@@H](NC(=O)[C@@H](O)C(C)C)CSSC[C@@H](C(=O)NC(CO)CO)NC(=O)[C@H](C(C)(C)C)NC(=O)[C@H](CO)NC(=O)[C@H](Cc3c[nH]c4ccccc34)NC(=O)[C@H]([C@@H](C)O)NC2=O)[C@@H](C)O)CCNC(=O)[C@H]([C@@H](C)O)NC(=O)[C@H](CCN)NC(=O)[C@H](CCN)NC1=O [Ex. 162] (I: H-[Hiv]CY[Dab][Orn]ETWS[Tle]C-{NHCH(CH2OH)2} / II: [Dab]T[Dap][Dab][Dab][dL]L[Dab][Dab]T; disulfide I:2-I:11; amide I:6-II:N; lactam II:4-II:C) | 0.5 µg/mL (≈ 0.209 µM) | 0.25 µg/mL (≈ 0.105 µM) | 1 µg/mL (≈ 0.419 µM) | 0.125 µg/mL (≈ 0.0524 µM) | 8 µg/mL (≈ 3.35 µM) | 0.5 µg/mL (≈ 0.209 µM) | 0.25 µg/mL (≈ 0.105 µM) | <1% |
| CC(C)C[C@@H]1NC(=O)[C@H](CCN)NC(=O)[C@H](CCN)NC(=O)[C@H](CC(C)C)NC(=O)[C@@H](CC(C)C)NC(=O)[C@H](CCN)NC(=O)[C@@H](NC(=O)[C@@H](CCN)NC(=O)CC[C@@H]2NC(=O)[C@H](CCCN)NC(=O)[C@H](CCN)NC(=O)[C@H](Cc3ccc(O)cc3)NC(=O)[C@@H](NC(=O)[C@@H](O)C(C)C)CSSC[C@@H](C(=O)N[C@H](C(N)=O)[C@@H](C)O)NC(=O)[C@H](C(C)(C)C)NC(=O)[C@H](CO)NC(=O)[C@H](Cc3c[nH]c4ccccc34)NC(=O)[C@H]([C@@H](C)O)NC2=O)CCNC1=O [Ex. 164] (I: H-[Hiv]CY[Dab][Orn]ETWS[Tle]CT-NH2 / II: [dDab][Dab][Dab][dL]L[Dab][Dab]L; disulfide I:2-I:11; amide I:6-II:N; lactam II:2-II:C) | 2 µg/mL (≈ 0.893 µM) | 0.5 µg/mL (≈ 0.223 µM) | 0.25 µg/mL (≈ 0.112 µM) | 0.5 µg/mL (≈ 0.223 µM) | 1 µg/mL (≈ 0.447 µM) | 0.5 µg/mL (≈ 0.223 µM) | 1 µg/mL (≈ 0.447 µM) | <1% |
| CC(=O)N[C@@H](CCN)C(=O)N[C@H](C(=O)N[C@H](C(=O)N[C@@H](Cc1ccc(O)cc1)C(=O)N[C@H]1CSSC[C@@H](C(=O)N[C@H](C(=O)N[C@@H](CCN)C(N)=O)C(C)(C)C)NC(=O)[C@H](Cc2c[nH]c3ccccc23)NC(=O)[C@H](CO)NC(=O)[C@@H](CCN)NC(=O)[C@H](CCC(=O)N[C@@H](CCN)C(=O)N[C@H](C(=O)N[C@@H](CN)C(=O)N[C@H]2CCNC(=O)[C@H]([C@@H](C)O)NC(=O)[C@H](CCN)NC(=O)[C@H](CCN)NC(=O)[C@H](CC(C)C)NC(=O)[C@@H](CC(C)C)NC(=O)[C@H](CCN)NC2=O)[C@@H](C)O)NC1=O)[C@@H](C)O)C(C)C [Ex. 218] (I: Ac-[Dab]VTYCE[dDab]SWC[Tle][Dab]-NH2 / II: [Dab]T[Dap][Dab][Dab][dL]L[Dab][Dab]T; disulfide I:5-I:10; amide I:6-II:N; lactam II:4-II:C) |  | 0.125 µg/mL (≈ 0.0512 µM) |  | 0.125 µg/mL (≈ 0.0512 µM) |  | 0.125 µg/mL (≈ 0.0512 µM) | 0.125 µg/mL (≈ 0.0512 µM) | <1% |
| CC(=O)N[C@H](C(=O)N[C@@H](CCN)C(=O)N[C@@H](Cc1ccc(O)cc1)C(=O)N[C@@H](CN)C(=O)N[C@@H](CCC(=O)N[C@@H](CCN)C(=O)N[C@H](C(=O)N[C@@H](CN)C(=O)N[C@H]1CCNC(=O)[C@H]([C@@H](C)O)NC(=O)[C@H](CCN)NC(=O)[C@H](CCN)NC(=O)[C@H](CC(C)C)NC(=O)[C@@H](CC(C)C)NC(=O)[C@H](CCN)NC1=O)[C@@H](C)O)C(=O)N[C@H](CCN)C(=O)N[C@@H](CO)C(=O)N[C@@H](Cc1c[nH]c2ccccc12)C(=O)N[C@@H](CO)C(=O)N[C@H](C(=O)N[C@@H](CCC(=O)O)C(=O)N[C@@H](CO)C(N)=O)C(C)(C)C)C(C)C [Ex. 229] (I: Ac-V[Dab]Y[Dap]E[dDab]SWS[Tle]ES-NH2 / II: [Dab]T[Dap][Dab][Dab][dL]L[Dab][Dab]T; amide I:5-II:N; lactam II:4-II:C) |  | 0.5 µg/mL (≈ 0.206 µM) |  | 0.125 µg/mL (≈ 0.0516 µM) |  | 0.125 µg/mL (≈ 0.0516 µM) | 0.5 µg/mL (≈ 0.206 µM) | 2% |
| CC(=O)N[C@H](C(=O)N[C@H](C(=O)N[C@@H](Cc1ccc(O)cc1)C(=O)N[C@@H](CCN)C(=O)N[C@@H](CCC(=O)N[C@@H](CCN)C(=O)N[C@H](C(=O)N[C@@H](CN)C(=O)N[C@H]1CCNC(=O)[C@H]([C@@H](C)O)NC(=O)[C@H](CCN)NC(=O)[C@H](CCN)NC(=O)[C@H](CC(C)C)NC(=O)[C@@H](CC(C)C)NC(=O)[C@H](CCN)NC1=O)[C@@H](C)O)C(=O)N[C@H](CCN)C(=O)N[C@H](C(=O)N[C@@H](Cc1c[nH]c2ccccc12)C(=O)N[C@@H](CCC(=O)O)C(=O)N[C@H](C(=O)N[C@@H](C)C(=O)N[C@@H](CO)C(N)=O)C(C)(C)C)[C@@H](C)O)[C@@H](C)O)C(C)C [Ex. 230] (I: Ac-VTY[Dab]E[dDab]TWE[Tle]AS-NH2 / II: [Dab]T[Dap][Dab][Dab][dL]L[Dab][Dab]T; amide I:5-II:N; lactam II:4-II:C) |  | 1 µg/mL (≈ 0.41 µM) |  | 0.25 µg/mL (≈ 0.103 µM) |  | 0.5 µg/mL (≈ 0.205 µM) | 1 µg/mL (≈ 0.41 µM) | <1% |
